Data reported in BindingDB's records for doi:10.1016/j.ejmech.2019.111626 (University of Illinois At Chicago, 2019).

Biological target: 5-hydroxytryptamine receptor 2A (Homo sapiens, UniProt P28223)
Assay: Agonist activity at recombinant human 5HT2A receptor expressed in Flp-In-293 cells assessed as increase in calcium influx measured for 300 secs by Fluo-4 dye based FLIPR assay

Sequence of 5-hydroxytryptamine receptor 2A (P28223 whole entry): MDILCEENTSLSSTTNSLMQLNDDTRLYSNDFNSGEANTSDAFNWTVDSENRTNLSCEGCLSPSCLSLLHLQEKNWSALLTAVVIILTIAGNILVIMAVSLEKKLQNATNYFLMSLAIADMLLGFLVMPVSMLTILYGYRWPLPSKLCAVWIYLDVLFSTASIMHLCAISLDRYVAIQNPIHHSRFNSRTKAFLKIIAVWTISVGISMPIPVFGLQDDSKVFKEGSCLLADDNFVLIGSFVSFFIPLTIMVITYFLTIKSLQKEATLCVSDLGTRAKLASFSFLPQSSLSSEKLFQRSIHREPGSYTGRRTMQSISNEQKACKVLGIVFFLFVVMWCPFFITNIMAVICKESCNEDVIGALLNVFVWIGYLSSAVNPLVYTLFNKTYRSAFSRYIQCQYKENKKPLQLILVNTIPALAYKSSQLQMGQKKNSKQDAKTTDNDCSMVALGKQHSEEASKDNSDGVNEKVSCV

Structure (SMILES): NC[C@H]1C[C@]1(F)c1cccc(F)c1
- EC50: 2.69 nM
